Target: T1, KPC-2 (Klebsiella pneumoniae, UniProt Q9F663)
T1 construct: untagged, full gene in pCR-BluntII-Topo (pTOPO-KPC-2), expressed in E. coli TOP10; ion exchange and gel filtration
Experiment: steady-state hydrolysis, UV-Vis at […] nm
Type: biochemical
Conditions: 100 mM sodium phosphate, pH 7.0

T1 sequence (Q9F663 25-293 limits assumed): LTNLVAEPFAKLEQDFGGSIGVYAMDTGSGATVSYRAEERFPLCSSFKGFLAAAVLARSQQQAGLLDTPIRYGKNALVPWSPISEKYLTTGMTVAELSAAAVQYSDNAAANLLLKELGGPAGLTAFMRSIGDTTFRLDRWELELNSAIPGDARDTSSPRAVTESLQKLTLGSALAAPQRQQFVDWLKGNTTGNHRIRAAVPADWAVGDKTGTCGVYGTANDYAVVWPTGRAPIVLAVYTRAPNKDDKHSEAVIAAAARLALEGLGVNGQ

Structure (SMILES): O=C(Cc1cccs1)N[C@@H]1C(=O)N2C(C(=O)O)=C(/C=C/c3ccc([N+](=O)[O-])cc3[N+](=O)[O-])CS[C@H]12 [nitrocefin]
- Km: 17.9 µM

Source: PMC9045388, “Identification of a KPC Variant Conferring Resistance to Ceftazidime-Avibactam from ST11 Carbapenem-Resistant Klebsiella pneumoniae Strains” (Microbiology Spectrum, 2022)
